US11607414B2, “Small molecule inhibitors of EGFR and PI3K” (The Regents of the University of Michigan, priority 2014, dated 2023)

How the values were obtained:
PIK3CA = PIK3CA (Homo sapiens, UniProt P42336); assay: ADAPTA universal kinase assay, PIK3CA; format: biochemical
Experimental: (§1) Various compounds were tested for their ability to inhibit EGFR and PIK3CA. The assays determining inhibitions are given in Example 2 Assays-Z′-LYTE® and ADAPTA.
Enzyme: The ADAPTA universal kinase assay is a homogenous, fluorescent based immunoassay for the detection of ADP. In contrast to ATP depletion assays, the ADAPTA assay is extremely sensitive to ADP formation such that a majority of the signal change occurs in the first 10-20% conversion of ATP to ADP. This makes the ADAPTA universal kinase assay ideally suited for use with low activity kinases.
The principle of the ADAPTA universal kinase assay is outlined below. The assay itself can be divided into two phases: a kinase reaction phase, and an ADP detection phase. […]
ADP formation is determined by calculating the emission ratio from the assay well. The emission ratio is calculated by dividing the intensity of the tracer (acceptor) emission by the intensity of the Eu (donor) emission at 615 nm as shown in the equation below.
Adapta® Assay Conditions' • Test Compounds: The Test Compounds are screened in 1% DMSO (final) in the well. […] ATP Km apparent is previously determined using a radiometric assay except when no substrate is available in which case an Adapta® assay is conducted. • Detection Mix: The Detection Mix is prepared in TR-FRET Dilution Buffer. […] Read on fluorescence plate reader and analyze the data.

EGFR = EGFR (Homo sapiens, UniProt P00533); assay: Z'-LYTE biochemical kinase assay, EGFR
Chain of EGFR (P00533 25-1210): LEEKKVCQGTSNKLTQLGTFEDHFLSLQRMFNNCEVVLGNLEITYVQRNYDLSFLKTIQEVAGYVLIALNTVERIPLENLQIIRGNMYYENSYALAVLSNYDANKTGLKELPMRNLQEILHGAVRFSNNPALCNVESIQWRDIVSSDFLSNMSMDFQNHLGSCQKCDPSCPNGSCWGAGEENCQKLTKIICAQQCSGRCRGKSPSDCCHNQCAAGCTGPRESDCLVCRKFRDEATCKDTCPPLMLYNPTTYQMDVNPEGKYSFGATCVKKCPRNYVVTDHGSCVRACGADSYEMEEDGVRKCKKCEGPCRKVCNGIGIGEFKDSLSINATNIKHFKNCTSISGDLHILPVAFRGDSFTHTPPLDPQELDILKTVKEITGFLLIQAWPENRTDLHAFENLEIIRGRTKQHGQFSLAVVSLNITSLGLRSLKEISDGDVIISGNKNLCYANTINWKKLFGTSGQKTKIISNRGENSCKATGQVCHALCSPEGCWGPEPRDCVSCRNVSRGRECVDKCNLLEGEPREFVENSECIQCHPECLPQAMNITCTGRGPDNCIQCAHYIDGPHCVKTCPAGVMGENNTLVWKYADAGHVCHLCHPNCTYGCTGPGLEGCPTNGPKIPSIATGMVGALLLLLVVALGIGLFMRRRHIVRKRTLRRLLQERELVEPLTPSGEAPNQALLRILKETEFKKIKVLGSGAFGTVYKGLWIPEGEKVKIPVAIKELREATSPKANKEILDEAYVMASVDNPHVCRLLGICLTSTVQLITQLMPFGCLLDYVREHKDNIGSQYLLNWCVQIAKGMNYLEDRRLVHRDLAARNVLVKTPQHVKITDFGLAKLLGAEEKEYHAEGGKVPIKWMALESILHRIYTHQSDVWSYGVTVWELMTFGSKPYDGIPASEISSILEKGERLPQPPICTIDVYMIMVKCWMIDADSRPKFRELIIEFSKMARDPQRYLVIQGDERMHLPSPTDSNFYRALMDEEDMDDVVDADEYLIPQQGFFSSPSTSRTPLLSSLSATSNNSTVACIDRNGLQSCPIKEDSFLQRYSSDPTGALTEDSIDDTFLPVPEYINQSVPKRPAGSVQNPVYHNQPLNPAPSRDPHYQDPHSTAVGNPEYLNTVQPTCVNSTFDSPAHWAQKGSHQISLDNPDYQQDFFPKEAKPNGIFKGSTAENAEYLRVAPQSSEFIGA
Experimental: as §1
Assays: The Z′-LYTE® biochemical assay employs a fluorescence-based, coupled-enzyme format and is based on the differential sensitivity of phosphorylated and non-phosphorylated peptides to proteolytic cleavage (FIG. 6). The peptide substrate is labeled with two fluorophores—one at each end— that make up a FRET pair. In the primary reaction, the kinase transfers the gamma-phosphate of ATP to a single tyrosine, serine or threonine residue in a synthetic FRET-peptide. […] A ratiometric method, which calculates the ratio (the Emission Ratio) of donor emission to acceptor emission after excitation of the donor fluorophore at 400 nm, is used to quantitate reaction progress.
A significant benefit of this ratiometric method for quantitating reaction progress is the elimination of well-to-well variations in FRET-peptide concentration and signal intensities. […]
Both cleaved and uncleaved FRET-peptides contribute to the fluorescence signals and therefore to the Emission Ratio. The extent of phosphorylation of the FRET-peptide can be calculated from the Emission Ratio. […]
Bar-coded Corning, low volume NBS, black 384-well plate (Corning Cat. 4514) 1. […] Read on fluorescence plate reader and analyze the data.

Chain of PIK3CA (P42336 whole entry): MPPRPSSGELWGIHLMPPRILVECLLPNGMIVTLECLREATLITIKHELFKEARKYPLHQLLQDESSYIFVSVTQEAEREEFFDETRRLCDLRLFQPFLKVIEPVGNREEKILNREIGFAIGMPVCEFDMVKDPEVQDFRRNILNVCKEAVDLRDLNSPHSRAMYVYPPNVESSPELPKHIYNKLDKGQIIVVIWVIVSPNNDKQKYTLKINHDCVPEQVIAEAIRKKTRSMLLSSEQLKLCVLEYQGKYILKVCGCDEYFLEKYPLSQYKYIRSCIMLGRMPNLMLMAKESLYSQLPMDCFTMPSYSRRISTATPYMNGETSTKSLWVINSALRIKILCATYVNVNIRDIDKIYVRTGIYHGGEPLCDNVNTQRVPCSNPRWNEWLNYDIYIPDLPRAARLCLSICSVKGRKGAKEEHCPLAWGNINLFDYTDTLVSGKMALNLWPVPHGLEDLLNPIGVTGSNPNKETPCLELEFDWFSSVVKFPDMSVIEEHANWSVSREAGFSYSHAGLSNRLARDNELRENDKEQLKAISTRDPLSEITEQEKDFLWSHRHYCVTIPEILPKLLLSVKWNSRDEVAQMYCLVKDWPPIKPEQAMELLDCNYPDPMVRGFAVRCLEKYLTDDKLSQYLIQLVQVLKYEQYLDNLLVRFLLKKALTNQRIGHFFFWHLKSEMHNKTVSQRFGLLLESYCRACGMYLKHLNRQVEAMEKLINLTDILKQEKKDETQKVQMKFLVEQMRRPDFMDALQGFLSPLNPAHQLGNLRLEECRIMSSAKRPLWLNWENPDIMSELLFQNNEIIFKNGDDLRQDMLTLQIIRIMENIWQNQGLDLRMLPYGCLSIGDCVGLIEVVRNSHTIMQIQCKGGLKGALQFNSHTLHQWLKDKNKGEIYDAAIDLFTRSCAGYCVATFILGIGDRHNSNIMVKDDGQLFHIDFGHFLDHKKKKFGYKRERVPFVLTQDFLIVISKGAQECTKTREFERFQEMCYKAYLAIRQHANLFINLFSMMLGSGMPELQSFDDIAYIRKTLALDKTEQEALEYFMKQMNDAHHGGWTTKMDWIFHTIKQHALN
Chain of PIK3CA (P27986 whole entry partner): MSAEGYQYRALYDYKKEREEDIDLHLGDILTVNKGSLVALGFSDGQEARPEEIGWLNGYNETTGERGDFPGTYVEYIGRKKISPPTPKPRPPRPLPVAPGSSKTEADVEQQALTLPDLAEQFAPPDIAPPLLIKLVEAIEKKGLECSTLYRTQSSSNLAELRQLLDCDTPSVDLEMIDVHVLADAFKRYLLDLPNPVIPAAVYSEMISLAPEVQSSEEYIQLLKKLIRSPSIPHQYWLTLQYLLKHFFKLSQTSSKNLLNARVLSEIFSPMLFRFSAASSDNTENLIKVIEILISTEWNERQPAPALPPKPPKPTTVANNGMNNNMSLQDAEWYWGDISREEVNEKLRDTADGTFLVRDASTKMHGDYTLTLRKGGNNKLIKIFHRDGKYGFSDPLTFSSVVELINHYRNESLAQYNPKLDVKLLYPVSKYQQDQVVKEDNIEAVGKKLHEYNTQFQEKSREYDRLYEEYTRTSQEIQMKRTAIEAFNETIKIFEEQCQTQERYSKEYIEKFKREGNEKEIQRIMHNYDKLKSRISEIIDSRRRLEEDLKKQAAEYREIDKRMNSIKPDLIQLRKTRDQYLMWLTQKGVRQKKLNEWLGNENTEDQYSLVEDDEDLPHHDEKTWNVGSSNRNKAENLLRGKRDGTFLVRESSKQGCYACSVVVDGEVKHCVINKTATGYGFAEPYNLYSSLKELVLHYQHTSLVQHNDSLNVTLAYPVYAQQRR

inhibition of / potency against purified PIK3CA (in words) (PIK3CA): potent dual inhibition
inhibition of / potency against purified EGFR (in words) (EGFR): potent dual inhibition
SMILES: CS(=O)(=O)Nc1cncc(-c2ccc3ncnc(Nc4cccc(Cl)c4)c3c2)c1 [MOL-162, N-(5-(4-((3-chlorophenyl)amino)quinazolin-6-yl)pyridin-3-yl)methanesulfonamide]
